Test results as given in PubChem BioAssay (NCI).
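Here, GI50 denotes the concentration required for 50% inhibition of growth. TGI denotes the concentration required for complete inhibition of growth.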

Key:
Test in all cases: NCI tumour cell line growth inhibition, 384-well format
DU-145 prostate = tested on: DU-145 prostate
COLO 205 colon = tested on: COLO 205 colon
MALME-3M melanoma = tested on: MALME-3M melanoma
A549 NSCLC = tested on: A549 NSCLC
HT29 colon = tested on: HT29 colon
HCC-2998 colon = tested on: HCC-2998 colon
MDA-MB-435 melanoma = tested on: MDA-MB-435 melanoma
SK-OV-3 ovarian = tested on: SK-OV-3 ovarian
HCT-116 colon = tested on: HCT-116 colon
NCI-H460 NSCLC = tested on: NCI-H460 NSCLC
UACC-257 melanoma = tested on: UACC-257 melanoma
SF-295 CNS = tested on: SF-295 CNS
LOX IMVI melanoma = tested on: LOX IMVI melanoma
NCI-H226 lung = tested on: NCI-H226 lung
ACHN renal = tested on: ACHN renal
RPMI-8226 leukemia = tested on: RPMI-8226 leukemia
EKVX NSCLC = tested on: EKVX NSCLC
HS 578T breast = tested on: HS 578T breast
SK-MEL-5 melanoma = tested on: SK-MEL-5 melanoma
NCI/ADR-RES ovarian = tested on: NCI/ADR-RES ovarian
786-0 renal = tested on: 786-0 renal
HCT-15 colon = tested on: HCT-15 colon
UACC-62 melanoma = tested on: UACC-62 melanoma
OVCAR-4 ovarian = tested on: OVCAR-4 ovarian
M14 melanoma = tested on: M14 melanoma
BT-549 breast = tested on: BT-549 breast
SK-MEL-28 melanoma = tested on: SK-MEL-28 melanoma
SF-268 CNS = tested on: SF-268 CNS
MCF7 breast = tested on: MCF7 breast
MDA-MB-231 breast = tested on: MDA-MB-231 breast
HOP-92 NSCLC = tested on: HOP-92 NSCLC
TK-10 renal = tested on: TK-10 renal
MDA-MB-468 breast = tested on: MDA-MB-468 breast
UO-31 renal = tested on: UO-31 renal
NCI-H23 lung = tested on: NCI-H23 lung
IGROV1 ovarian = tested on: IGROV1 ovarian
CAKI-1 renal = tested on: CAKI-1 renal
MOLT-4 leukemia = tested on: MOLT-4 leukemia
SW-620 colon = tested on: SW-620 colon
SN12C renal = tested on: SN12C renal
OVCAR-8 ovarian = tested on: OVCAR-8 ovarian
U251 glioblastoma = tested on: U251 glioblastoma
K-562 leukemia = tested on: K-562 leukemia
SF-539 CNS = tested on: SF-539 CNS
NCI-H522 lung = tested on: NCI-H522 lung
SNB-75 CNS = tested on: SNB-75 CNS
SNB-19 CNS = tested on: SNB-19 CNS
A498 renal = tested on: A498 renal
T-47D breast = tested on: T-47D breast
KM12 colon = tested on: KM12 colon
PC-3 prostate = tested on: PC-3 prostate
RXF 393 renal = tested on: RXF 393 renal
NCI-H322M lung = tested on: NCI-H322M lung
HOP-62 NSCLC = tested on: HOP-62 NSCLC
CCRF-CEM leukemia = tested on: CCRF-CEM leukemia
SR leukemia = tested on: SR leukemia
HL-60(TB) leukemia = tested on: HL-60(TB) leukemia
OVCAR-3 ovarian = tested on: OVCAR-3 ovarian

Compound: O=C(NOCCO)c1ccc2cncn2c1Nc1ccc(I)cc1F
- GI50 (DU-145 prostate): 2.14 µM
- TGI (DU-145 prostate): 22.4 µM
- GI50 (COLO 205 colon): < 0.01 µM
- TGI (COLO 205 colon): 0.0258 µM
- GI50 (MALME-3M melanoma): < 0.01 µM
- TGI (MALME-3M melanoma): < 0.01 µM
- GI50 (A549 NSCLC): 0.026 µM
- TGI (A549 NSCLC): 11.1 µM
- GI50 (HT29 colon): < 0.01 µM
- TGI (HT29 colon): 14.3 µM
- GI50 (HCC-2998 colon): < 0.01 µM
- TGI (HCC-2998 colon): 0.0101 µM
- GI50 (MDA-MB-435 melanoma): < 0.01 µM
- TGI (MDA-MB-435 melanoma): 21.1 µM
- GI50 (SK-OV-3 ovarian): 2.76 µM
- TGI (SK-OV-3 ovarian): 18.7 µM
- GI50 (HCT-116 colon): < 0.01 µM
- TGI (HCT-116 colon): 0.191 µM
- GI50 (NCI-H460 NSCLC): < 0.01 µM
- TGI (NCI-H460 NSCLC): 22.1 µM
- GI50 (UACC-257 melanoma): < 0.01 µM
- TGI (UACC-257 melanoma): < 0.01 µM
- GI50 (SF-295 CNS): 11.1 µM
- TGI (SF-295 CNS): 26.2 µM
- GI50 (LOX IMVI melanoma): < 0.01 µM
- TGI (LOX IMVI melanoma): 0.259 µM
- GI50 (NCI-H226 lung): 1.01 µM
- TGI (NCI-H226 lung): 18.3 µM
- GI50 (ACHN renal): 7.88 µM
- TGI (ACHN renal): > 100 µM
- GI50 (RPMI-8226 leukemia): 2.16 µM
- TGI (RPMI-8226 leukemia): 20.9 µM
- GI50 (EKVX NSCLC): 0.153 µM
- TGI (EKVX NSCLC): 17.8 µM
- GI50 (HS 578T breast): 1.22 µM
- TGI (HS 578T breast): 7.01 µM
- GI50 (SK-MEL-5 melanoma): < 0.01 µM
- TGI (SK-MEL-5 melanoma): 15.8 µM
- GI50 (NCI/ADR-RES ovarian): 23.1 µM
- TGI (NCI/ADR-RES ovarian): > 100 µM
- GI50 ([…]-0 renal): 1.23 µM
- TGI (786-0 renal): 20.7 µM
- GI50 (HCT-15 colon): 0.301 µM
- TGI (HCT-15 colon): > 100 µM
- GI50 (UACC-62 melanoma): < 0.01 µM
- TGI (UACC-62 melanoma): 0.0159 µM
- GI50 (OVCAR-4 ovarian): 4.22 µM
- TGI (OVCAR-4 ovarian): 38.3 µM
- GI50 (M14 melanoma): < 0.01 µM
- TGI (M14 melanoma): < 0.01 µM
- GI50 (BT-549 breast): 10 µM
- TGI (BT-549 breast): 25.4 µM
- GI50 (SK-MEL-28 melanoma): < 0.01 µM
- TGI (SK-MEL-28 melanoma): < 0.01 µM
- GI50 (SF-268 CNS): 9.41 µM
- TGI (SF-268 CNS): 22.9 µM
- GI50 (MCF7 breast): 11.5 µM
- TGI (MCF7 breast): 47.2 µM
- GI50 (MDA-MB-231 breast): < 0.01 µM
- TGI (MDA-MB-231 breast): 1.02 µM
- GI50 (HOP-92 NSCLC): 0.012 µM
- TGI (HOP-92 NSCLC): 0.198 µM
- GI50 (TK-10 renal): 0.0704 µM
- TGI (TK-10 renal): 27.4 µM
- GI50 (MDA-MB-468 breast): 6.92 µM
- TGI (MDA-MB-468 breast): 21.5 µM
- GI50 (UO-31 renal): 0.0408 µM
- TGI (UO-31 renal): 20.2 µM
- GI50 (NCI-H23 lung): < 0.01 µM
- TGI (NCI-H23 lung): 0.077 µM
- GI50 (IGROV1 ovarian): < 0.01 µM
- TGI (IGROV1 ovarian): 12.6 µM
- GI50 (CAKI-1 renal): 0.0109 µM
- TGI (CAKI-1 renal): 13.3 µM
- GI50 (MOLT-4 leukemia): 14.8 µM
- TGI (MOLT-4 leukemia): 31.7 µM
- GI50 (SW-620 colon): < 0.01 µM
- TGI (SW-620 colon): 12.5 µM
- GI50 (SN12C renal): < 0.01 µM
- TGI (SN12C renal): 17.9 µM
- GI50 (OVCAR-8 ovarian): 2.6 µM
- TGI (OVCAR-8 ovarian): 18.2 µM
- GI50 (U251 glioblastoma): 0.0466 µM
- TGI (U251 glioblastoma): 10.6 µM
- GI50 (K-562 leukemia): 0.0267 µM
- TGI (K-562 leukemia): 14.7 µM
- GI50 (SF-539 CNS): 0.288 µM
- TGI (SF-539 CNS): 11.7 µM
- GI50 (NCI-H522 lung): 11.8 µM
- TGI (NCI-H522 lung): 26.4 µM
- GI50 (SNB-75 CNS): 0.34 µM
- TGI (SNB-75 CNS): 15.7 µM
- GI50 (SNB-19 CNS): 0.0878 µM
- TGI (SNB-19 CNS): 20.6 µM
- GI50 (A498 renal): 11.9 µM
- TGI (A498 renal): 32.4 µM
- GI50 (T-47D breast): 15.2 µM
- TGI (T-47D breast): 43.1 µM
- GI50 (KM12 colon): < 0.01 µM
- TGI (KM12 colon): 17.9 µM
- GI50 (PC-3 prostate): 18.1 µM
- TGI (PC-3 prostate): 35.4 µM
- GI50 (RXF 393 renal): 0.196 µM
- TGI (RXF 393 renal): 15.1 µM
- GI50 (NCI-H322M lung): 0.0325 µM
- TGI (NCI-H322M lung): 15.5 µM
- GI50 (HOP-62 NSCLC): 0.0128 µM
- TGI (HOP-62 NSCLC): 15.3 µM
- GI50 (CCRF-CEM leukemia): 13.3 µM
- TGI (CCRF-CEM leukemia): 27 µM
- GI50 (SR leukemia): 0.087 µM
- TGI (SR leukemia): 2.39 µM
- GI50 (HL-60(TB) leukemia): < 0.01 µM
- TGI (HL-60(TB) leukemia): < 0.01 µM
- GI50 (OVCAR-3 ovarian): 11.2 µM
- TGI (OVCAR-3 ovarian): 29.1 µM
